Results: patent publication US20250186411A1, “Methods of Treating Disorders Associated with Overactivation of IKKB” (The United States Government as represented by the …, priority 2023, published 2025)
Like-named read-outs stand apart in the source and are kept apart here.

Key:
Type in all cases: cell-based
[1] = tested on: KLF15 promoter (pEZX-FR03hKLF15p human podocytes); experiment: KLF15 reporter high-throughput screening assay in human podocytes (firefly/renilla luciferase); settings: for fold induction at 1 µM: Homo sapiens, read-out: Fold Change (KLF15 reporter activity)
Protocol: Briefly, these podocytes proliferate under permissive conditions (gamma interferon at 33° C.), but differentiate under nonpermissive conditions (37° C.).
The amplified fragment contains MluI and PmeI RE sites and was subcloned into the MluI and PmeI cloning site of the pEZX-FR03 Firefly luciferase (FLuc) and Renilla luciferase (Rluc) reporter cloning vector (GeneCopoeia) to generate pEZX-FR03hKLF15p. Following verification of the sequence by restriction and μsequencing, the pEZX-FR03hKLF15p construct (which contains a puromycin resistance cassette) was transfected into human podocytes followed by selection in puromycin-containing media for 2 weeks. Surviving podocytes clones were pooled together for further analysis.
The library of compounds from the National Cancer Institute (Approved Oncology Drugs Set VI; Natural Products Set III; Diversity Set V; and Mechanistic Diversity Set II) were added to a final concentration of 1 μM in 0.5% DMSO in the low FBS cell culture media (0.2% FBS) using liquid handling system PipetMax (Gilson). After 24 hours incubation at 37° C., the Luc-Pair™ Duo-Luciferase HT Assay Kit (GeneCopoeia LF015) were used and firefly and renilla luciferase activity was determined using the SpectraMax M3 (Molecular Devices). Positive controls were all-trans retinoic acid (atRA) (1 μM) and dexamethasone (DEX) (1 μM). Negative controls were DMSO and cell-free media.
(§1) To identify small molecule inducers of KLF15 expression in human podocytes, human podocytes were generated with a dual reporter, firefly luciferase directed at the KLF15 promoter region and renilla luciferase (pEZX-FR03hKLF15p). […] The positive controls were inducers of KLF15 expression, dexamethasone (DEX) and all-trans retinoic acid (atRA), and […] and cell-free wells served as negative controls.

[2] = tested on: KLF15 promoter (pEZX-FR03hKLF15p human podocytes); experiment: Half maximal effective concentration (EC50) of KLF15 reporter activity
Protocol: The EC50 was determined using nonlinear regression and then choosing the equation of Sigmoidal function, 4PL method (X is log(concentration); or the equation of log(agonist) vs. response—variable slope).
as §1

[3] = tested on: human podocytes; experiment: Cell viability of podocytes (renilla activity, MTS assay); settings: higher doses (10^4 nM), relative to DMSO
Protocol: Differentiated pEZX-FR03hKLF5p human podocytes were treated with 25 μg/ml lipopolysaccharide (LPS) or vehicle and 1 μM KLF15 agonist or vehicle control for 24 hours. Firefly and renilla luciferase assay were measured initially to determine relative KLF15 reporter activity.
Differentiated pEZX-FR03hKLF5p human podocytes were treated with 0.4 μg/ml adriamycin (ADR) or vehicle and 1 μM KLF15 agonist or vehicle control for 24 hours. Firefly and renilla luciferase assay were measured initially to determine relative KLF15 reporter activity.
To assess cell viability, the CellTiter 96® AQueous One Solution Reagent (Promega) was added to the culture media and plates were incubated for 2 hours at 37° C. with 5% CO2.

[4] = NCI library hits, 1 μM, 24 hours
[5] = Homo sapiens, KLF15 reporter activity, dose-response, read-out: EC50
[6] = KLF15 reporter activity, dose-response, read-out: EC50

| Compound | EC50 [2, 5] [nM] | fold induction at 1 µM [1, 4] | other results |
| --- | --- | --- | --- |
| O=C1C(=Cc2ccc([N+](=O)[O-])cc2)Sc2scc(-c3cccc([N+](=O)[O-])c3)[n+]21 [C-42, Thiazolo[2,3-b]thiazolium, 2,3-dihydro-2-[(4-nitrophenyl)methylene]-5-(3-nitrophenyl)-3-oxo-, chloride] |  |  | fold induction at 1 µM ([1]; 24 h): 2.58 |
| Cc1ccc(NNC2=C3N=NN=C3C=CC2=O)cc1 [C-43, 4-[2-(4-methylphenyl)hydrazinyl]benzotriazol-5-one] | 866 | 2.57 |  |
| COc1ccc2c(n1)Sc1nc3ccccc3nc1N2 [C-35, 7-Methoxy-1,4,6-benzotriazaphenothiazine] |  |  | Fold Change (KLF15 reporter activity) [1, 4]: 2.6597 fold; EC50 [2, 6]: 319 nM |
| Clc1ccccc1-c1nc(-c2ccncc2)no1 [C-10, Pifexole] | 332 | 2.72 |  |
| COc1cccc(C=Cc2nccc3ccccc23)c1OC [C-44] |  |  | Fold Change (KLF15 reporter activity) [1, 4]: 2.5631 fold; EC50 [2, 6]: ~1840 nM |
| CN(C)c1ccc(N=Nc2ccccn2)cc1 [C-37, 4-(2-pyridylazo)-n,n-dimethylaniline] |  |  | Fold Change (KLF15 reporter activity) [1, 4]: 2.6148 fold; EC50 [2, 6]: 27 nM |
| CN(C)c1ccc(/C=C2\C=Cc3ccccc32)cc1 [C-3, [(4-Dimethylamino)benzylidene]indene] |  |  | Fold Change (KLF15 reporter activity) [1, 4]: 2.6455 fold; EC50 [2, 6]: 17.7 nM |
| 2-[2-[(2E)-2-[(5Z)-5-(anilinomethylene)-3-ethyl-4-oxo-thiazolidin-2-ylidene[hydrazino]thiazol-5-yl]-N-(o-tolyl)acetamide [C-26] |  |  | Fold Change (KLF15 reporter activity) [1, 4]: 3.0168 fold; EC50 [2, 6]: 484 nM |
| COc1ccc2[nH]c(-c3ccccc3)cc2c1 [C-5, 5-methoxy-2-phenyl-1H-indole] | 55.9 | 3.14 |  |
| 5-Methylbenzo[c]phenanthridin-5-ium-2,3,8,9-tetrol; pyridine; chloride; hydrochloride [C-23] |  |  | Fold Change (KLF15 reporter activity) [1, 4]: 3.0541 fold; EC50 [2, 6]: 296 nM |
| NC(=O)c1ccccc1OCC(=O)Nc1ccc(Cl)c(Cl)c1 [C-12, 2-[2-(3,4-Dichloroanilino)-2-oxoethoxy]benzamide] | 37.3 | 3.13 |  |
| CC1=C(O)C(=O)C=C2C1=CC=C1[C@@]2(C)CC[C@@]2(C)[C@@H]3C[C@](C)(C(=O)O)CC[C@]3(C)CC[C@]12C [C-19, Celastrol] |  |  | fold induction at 1 µM ([1]; 24 h): 3.28; EC50 ([2]; Homo sapiens): 11.2 nM |
| C[C@@H]1C[C@H]2[C@@H]3CCC4=CC(=O)C=C[C@]4(C)[C@@]3(F)[C@@H](O)C[C@]2(C)[C@@]1(O)C(=O)CO [DEX, dexamethasone, reference compound] |  |  | renilla activity in dose-response [3]: trend towards lower renilla activity |
| Cc1cccn2c(=O)[nH]nc12 [C-29] |  |  | Fold Change (KLF15 reporter activity) [1, 4]: 2.8700 fold; EC50 [2, 6]: 550 nM |
| Oc1ccc(-c2nc3ccccc3s2)cc1 [C-1, Phenol,4-(2-benzothiazolyl)] |  |  | Fold Change (KLF15 reporter activity) [1, 4]: 3.0083 fold; EC50 [2, 6]: 99.6 nM |
| FC(F)(F)c1cccc(-c2nc3nc(Cl)c(Cl)nc3[nH]2)c1 [C-16, 5,6-dichloro-2-[3-(trifluoromethyl)phenyl]-1H-imidazo[4,5-b]pyrazine] | 52.1 | 2.82 |  |
| Cc1nc(-n2nc(-c3ccccc3)cc2-c2ccccc2)sc1C(=O)C=Cc1ccc(Cl)c(Cl)c1 [C-27, 3-(3,4-dichlorophenyl)-1-(2-(3,5-diphenyl-1H-pyrazol-1-yl)-4-methylthiazol-5-yl)prop-2-en-1-one] |  | 2.89 |  |
| Cc1ccc(NC(=O)c2cccc([N+](=O)[O-])c2O)c([N+](=O)[O-])c1 [C-21, 2-hydroxy-N-(4-methyl-2-nitrophenyl)-3-nitrobenzamide] |  |  | fold induction at 1 µM ([1]; 24 h): 3.11; EC50 ([2]; Homo sapiens): 61.4 nM |
| CCOC(=O)c1sc2[n+](c1C)C(=O)/C(=C/c1ccc([N+](=O)[O-])cc1)S2.[Cl-] [C-32, ethyl (2Z)-5-methyl-2-[(4-nitrophenyl)methylidene]-3-oxo-[1,3]thiazolo[2,3-b][1,3]thiazol-4-ium-6-carboxylate;chloride] |  |  | Fold Change (KLF15 reporter activity) [1, 4]: 2.8360 fold |
| Nc1ccc2c(c1)CN1C(=O)c3ccccc3C1=N2 [C-2, Batracyclin] | 14.9 | 3.07 |  |
| O=C(Nc1cccc([N+](=O)[O-])c1)c1ccc2ccccc2c1O [C-38, 2-<3-Nitro-phenylcarbamoyl>-naphth-1-ol] |  |  | Fold Change (KLF15 reporter activity) [1, 4]: 2.6069 fold; EC50 [2, 6]: 145 nM |
| Tin(IV), chlorotriphenyl[1-(4-ethoxyphenyl)-3-cyanoureato]-, hydrogen, trimethylamine [C-17] |  |  | Fold Change (KLF15 reporter activity) [1, 4]: 4.6159 fold |
| c1ccc(-c2nnc(-c3ccccn3)s2)nc1 [C-30, 2,5-dipyridin-2-yl-1,3,4-thiadiazole] | 335 | 2.86 |  |

Continued, in another order:

| EC50 [2, 5] [nM] | Compound | fold induction at 1 µM [1, 4] | other results |
| --- | --- | --- | --- |
| 70.5 | O=C(Nc1ccc2ccccc2c1)c1cccc(F)c1 [C-8, 3-fluoro-N-(2-naphthyl)benzamide] | 2.79 |  |
| 770 | Cc1cccnc1NC(=S)Nc1ncccc1C [C-6, 1,3-bis(3-methylpyridin-2-yl)thiourea] | 2.71 |  |
| ~6310 | CN(C)c1ccc(N=Nc2cccc3ccoc23)cc1 [C-28, 7-(p-N,N-Dimethylaminophenylazo)benzofuran] | 2.87 |  |
| 215 | COc1cccc2nc3cc(C)c(C)cc3nc12 [C-41, 1-Methoxy-7,8-dimethylphenazine] | 2.59 |  |
| 42.1 | O=C(Nc1ccc(Nc2ccccc2)cc1)Nc1ccccc1Cl [C-14, 1-(4-Anilinophenyl)-3-(2-chlorophenyl)urea] | 3.03 |  |
| 2670 | Cc1ccc(N/N=C2\C(=N)N(c3ccccc3)N=C2N)cc1 [C-24, (4Z)-5-imino-4-[(4-methylphenyl)hydrazinylidene]-1-phenylpyrazol-3-amine] | 3.03 |  |
| ~6890 | Cc1csc(N=Nc2ccc(N(C)C)cc2)[n+]1[O-] [C-39, N,N-dimethyl-4-[(4-methyl-3-oxido-1,3-thiazol-3-ium-2-yl)diazenyl]aniline] | 2.6 |  |
| 706 | Nc1ccccc1C(=O)Nc1ccc(Cl)cc1Cl [C-11, 2-amino-N-(2,4-dichlorophenyl)benzamide] | 2.64 |  |
| 546 | COc1ccc(C(C#N)=Cc2ccccn2)cc1 [C-40, 2-(4-methoxyphenyl)-3-pyridin-2-ylprop-2-enenitrile] | 2.6 |  |
| 86.1 | O=C(Nc1ccc(Cl)c(Cl)c1)Nc1ccccc1O [C-13, N-(3,4-dichlorophenyl)-N′-(2-hydroxyphenyl)urea] | 2.64 |  |
| 292 | O=C(NC(=S)Nc1ccccn1)c1ccccc1 [C-36, N-(pyridin-2-ylcarbamothioyl)benzamide] | 2.64 |  |
| 23.7 | CN(C)c1cccc(C=C(C#N)c2ccccc2)c1 [C-4, 2-Propenenitrile, 3-[3-(dimethylamino)phenyl]-2-phenyl-] | 2.57 |  |
| 490 | O=C1C=C/C(=C2/Nc3ccccc3S2)C(O)=C1 [C-33, (4E)-4-(3H-1,3-benzothiazol-2-ylidene)-3-hydroxycyclohexa-2,5-dien-1-one] | 2.75 |  |
| 15.8 | Cc1cc(N(C)C)ccc1/N=N/c1ccc2ncccc2c1 [C-25, N,N,3-trimethyl-4-[(E)-6-quinolylazo]aniline] | 3.02 |  |
| 84.4 | COc1ccc(N=Nc2ccc(N)nc2N)cc1 [C-20, 3-[(4-Methoxyphenyl)azo]-2,6-pyridinediamine] | 3.14 |  |
| 122 | O=C1Nc2ccccc2C1=NNC(=O)c1ccccc1O [C-34, 2-hydroxy-N′-(2-oxo-1,2-dihydro-3H-indol-3-ylidene)benzohydrazide] | 2.69 |  |
| 45.9 | O=C1C(c2cnc3ccccc3n2)=C(O)c2ccccc21 [C-31, 1-Indenone, 3-hydroxy-2-(2-quinoxalinyl)-] | 2.85 |  |
| 156 | CC(=NNc1nc2ccccc2s1)c1ccncn1 [C-18, 2-(2-(1-(pyrimidin-4-yl)ethylidene)hydrazinyl)benzo[d]thiazole] | 3.29 |  |
